Assay results as given in patent publication US20110009342A1, “USES OF PDCD5 POLYPEPTIDE FOR TUMOR CHEMOTHERAPY AND ORGAN PROTECTION” (priority 2008, published 2011).
Marks after values point to notes of the source that are not given here.

Legend:
Raji cells [1] = experiment: colony-forming ability (CFA) assay, ADM; type: cell-based; conditions: ADM 5 ng/mL alone; 14 days
Protocol: Analysis for colony forming ability (CFA): U937 cells (ATCC), in the logarithmic phase, were maintained in RPMI 1640 medium supplemented with 20% FBS and 0.4% methyl cellulose (Sigma) by the semi-solid colony culture method and were adjusted to a density of 5×10^3 cells/mL. The cells were divided into control groups and test groups, and each group was assayed in triple wells. U937 cells in the control groups were treated with DNR alone, with the final concentrations of 0 ng/mL and 0.5 ng/mL. U937 cells in the test group were treated with DNR of various concentrations combined with PDCD5 of various concentrations, while the final concentrations of PDCD5 were 0 μg/mL, 0.625 μg/mL, 1.25 μg/mL, and 2.5 μg/mL, respectively. After incubation for 14 days in a 37° C., 5% CO2 and saturatedly humidified incubator, a colony with more than 30 cells was counted by an inverted microscope in order to analyze colony forming ability of each group. […]
Methods: Colony-forming ability (CFA) assay: Raji cells of logarithmic growth phase were cultured, and the method was the same as that in Example 8. […] The numbers of colonies (containing≧30 cells) were counted by inverted microscope to observe the CFA, which is indicated by the ratio of average number of colony formation in each of the test groups versus that of the untreated control group.

K562 cells = experiment: Annexin-V apoptosis by flow cytometry, Ara-C; type: cell-based; conditions: Ara-C 0.1 μg/mL; PDCD5 60 μg/mL where combined; 48 hours
Protocol: Methods: Cell staining with FITC/Annexin-V and cell apoptosis detection in vitro by flow cytometry: K562 cells (ATCC) were maintained in RPMI 1640 (Life Technologies, USA) supplemented with 10% FBS (Hyclone, USA), and were plated in 24-well culture dishes to a density of 2×10^5 cells per well. rhPDCD5 protein was added in each well with a final concentration of 15 μg/mL, 30 μg/mL and 60 μg/mL, respectively. Chemotherapeutic drug Ara-C (Pharmacia, Italia) was then added with a final concentration of 0.1 μg/mL and RPMI 1640 medium supplemented with 10% FBS was added to bring the culture system to 1 mL. After incubation for 48 hours, the cells were stained with Annexin-V/PI (Biosea) and then were analyzed for apoptosis by flow cytometry.

U937 cells [2] = experiment: cell apoptosis assay, DNR; type: cell-based; conditions: PDCD5 5 μg/mL where combined, 24 hours
Protocol: Methods: Cell apoptosis assay: U937 cells (ATCC), in the logarithmic phase, were maintained in RPMI 1640 (Life Technologies, USA) supplemented with 10% FBS (Hyclone, USA), and were adjusted to a density of 2×10^5 cells/mL and then were divided into control groups and test groups. U937 cells in the control groups were treated with DNR (Pharmacia Italia SPA) alone, with the final concentrations of 0 μg/mL, 0.05 μg/mL, and 0.1 μg/mL. U937 cells in the test groups were treated with DNR of various concentrations combined with PDCD5 of various concentrations, with the final concentrations of PDCD5 being 0 μg/mL, 2.5 μg/mL, and 5 μg/mL, respectively. After being incubated for 24 hours in a 37° C., 5% CO2 and saturatedly humidified incubator, the cells were stained with Annexin-V/PI (Biosea) and then were analyzed for apoptosis with a FACSCalibur flow cytometer.

U937 cells [3] = experiment: colony forming ability (CFA), DNR; type: cell-based; conditions: DNR 0.5 ng/mL alone; 14 days
Protocol: (§1) Analysis for colony forming ability (CFA): U937 cells (ATCC), in the logarithmic phase, were maintained in RPMI 1640 medium supplemented with 20% FBS and 0.4% methyl cellulose (Sigma) by the semi-solid colony culture method and were adjusted to a density of 5×10^3 cells/mL. The cells were divided into control groups and test groups, and each group was assayed in triple wells. U937 cells in the control groups were treated with DNR alone, with the final concentrations of 0 ng/mL and 0.5 ng/mL. U937 cells in the test group were treated with DNR of various concentrations combined with PDCD5 of various concentrations, while the final concentrations of PDCD5 were 0 μg/mL, 0.625 μg/mL, 1.25 μg/mL, and 2.5 μg/mL, respectively. After incubation for 14 days in a 37° C., 5% CO2 and saturatedly humidified incubator, a colony with more than 30 cells was counted by an inverted microscope in order to analyze colony forming ability of each group. The colony forming ability was shown as the ratio of average number of colony in each group versus that of the untreated control group in which the final concentrations of DNR and PDCD5 were 0 μg/mL.

Raji cells [4] = experiment: FITC/Annexin-V apoptosis by flow cytometry, DNR; type: cell-based; conditions: DNR 0.05 μg/mL; PDCD5 5 μg/mL where combined; 24 h
Protocol: Methods: Raji cells were cultured in RPMI 1640 medium (Life Technologies, USA) supplemented with 10% Fetal Bovine Serum (FBS, Hyclone, USA). The cells were seeded in 24-well plates with 2×10^5 cells per well. rhPDCD5 was added to each well and the final concentrations were 0 μg/mL, 2.5 μg/mL and 5 μg/mL, respectively. Subsequently, DNR was added and the final concentrations were 0 μg/mL and 0.05 μg/mL, and RPMI 1640 medium supplemented with 10% FBS was added to ensure the system was brought to 1 mL. After 24 h incubation, the cells were stained with FITC/Annexin-V (Beijing Biosea Biotechnology Co., Ltd.) and the apoptosis was detected by flow cytometry.

Jurkat cells = experiment: FITC/Annexin-V apoptosis by flow cytometry, DNR; type: cell-based; conditions: DNR 0.05 μg/mL; PDCD5 5 μg/mL where combined; 24 h
Protocol: Methods: The density of Jurkat cells were adjusted by RPMI 1640 medium (Life Technologies, USA) supplemented with 10% Fetal Bovine Serum (FBS, Hyclone, USA). […] Subsequently, DNR (Pharmacia Italia S.P.A) was added with its final concentration of 0.05 μg/mL, and RPMI 1640 medium supplemented with 10% FBS was added to ensure the system to be 1 mL. After 24h incubation, the sample was stained with FITC/Annexin-V (Beijing Biosea Biotechnology CO., LTD) and detected for apoptosis by flow cytometry.

U937 xenografts = experiment: U937 nude mice xenograft model, DNR; type: in vivo, BALB/c nude mice
Protocol: Methods: U937 nude mice xenograft model: BALB/c nude mice (5-6 weeks of age) were pretreated with cyclophosphamide (100 mg/kg, injected intraperitoneally once a day for two consecutive days). On day 3, 1×10^7 (100 μl) of U937 cells were subcutaneously (s.c.) injected into a single flank of each of the mice. The treatments began on day 7 after inoculation when the average tumor diameter reached about 5 mm. The mice were divided randomly into four groups (n=6, i.e., six mice in each group) and treated with normal saline (NS), rhPDCD5 (40 μg, locally injected into the tumor), DNR (40 μg, intraperitoneal) or DNR (40 μg) plus rhPDCD5 (40 μg), once a day for 8 consecutive days.
Tumor volume (V) was determined every other day by vernier caliper measurements and calculated based on the equation of V=ab^2/2, where “a” refers to a long tumor diameter and “b” refers to a short diameter, then tumor volume growth curve was drawn. The percentage of reductions in tumor growth was calculated using the formula: [1-(Tf-Ti)/(Cf-Ci)]×100, where Tf and Ti are the final and initial mean tumor volumes, respectively, of the group receiving a specific treatment, and Cf and Ci are the final and initial mean tumor volumes, respectively, of the NS control group. After the treatment, tumors were collected and weighed and tissues were sectioned and processed by histological hematoxylin and eosin (H&E) staining. Results were statistically analyzed using SPSS 13.0. The measurements were expressed as the mean±standard deviation. Data were analyzed by the single-factor ANOVA and Student's t test and are presented as mean±standard deviation (SD). P<0.05 was considered statistically significant.

mouse livers = experiment: HE staining of liver paraffin sections of treated K562 xenograft mice; type: in vivo, BALB/c nu/nu mice; conditions: no PDCD5; Imatinib 1.2 mg oral or IDR 25 μg i.p.; n=6
Protocol: (§2) Methods: BALB/c nu/nu female mice (6-8 weeks of age) were injected intraperitoneally with cyclophosphamide (CTX) (Jiangsu Hengrui Medicine Co., Ltd.), 2 mg/day per mouse for two days. One day after the second cyclophosphamide injection, 1.5×10^7 of K562 cells were injected subcutaneously into the single armpit of each of the mice. The mice bearing K562 cell xenografts were divided randomly into nine groups (n=6, i.e., six mice in each group) and each of the mice was i.p. treated, respectively, with normal saline, PDCD5, IDR (Sigma Corporation), and IDR plus PDCD5. […] At the end of the experiment, mice were killed. The mice were the same batch of that of Example 6. The excised liver of mice after treatment were fixed in 10% neutrally buffered formalin and then embedded in paraffin after dehydration. The paraffin embedding was cut and paraffin sections after HE staining were used to observe the necrosis of experimental mouse livers. Meanwhile, paraffin sections after Tunel (Roche Inc.) staining were used to observe the apoptosis of experimental mouse livers, and then the number of apoptotic cells was counted in five high-power microscope field for statistical analysis.

mice hearts = experiment: HE staining of heart paraffin sections of treated K562 xenograft mice; type: in vivo, BALB/c nu/nu mice; conditions: no PDCD5; Imatinib 1.2 mg oral or IDR 25 μg i.p.; n=6
Protocol: as §2, with “hearts” for “liver”, “myocardial congestion, hemorrhage, and myofiber degeneration” for “necrosis”, “heart” for “experimental mouse livers. Meanwhile, paraffin sections after Tunel (Roche Inc.) staining were used to observe the apoptosis of experimental mouse livers, and then the number of apoptotic cells was counted”, “mice.” for “five high-power microscope field for statistical analysis.”

HL-60 cells = experiment: cell apoptosis assay, As2O3; type: cell-based; conditions: for rate of apoptosis: PDCD5 20 μg/mL where combined, 24 h
Protocol: Methods: Cell apoptosis assay: HL-60 cells (ATCC) of logarithmic growth phase were cultured and the density of cells was 2×10^5/mL. The cells were divided into control and test groups. In the control groups, the HL60 cells were treated only with As2O3 (Harbin Yida Pharmaceutical Co., Ltd.), and the final concentration of As2O3 were 0 μg/mL, 0.25 μg/mL and 0.5 μg/mL, respectively. In the test groups, the HL60 cells were treated with As2O3 in the various concentrations combined with PDCD5 in various concentrations, the final concentrations of PDCD5 being 0 μg/mL, 5 μg/mL, 10 μg/mL and 20 μg/mL, respectively. The cells were incubated in a 37° C., 5% CO2 and saturatedly humidified incubator for 24 h, and subsequently were stained with Annexin-V/PI and detected for apoptosis by flow cytometer.

HL60 cells = experiment: colony-forming ability (CFA) assay, As2O3; type: cell-based; conditions: As2O3 0.25 μg/mL alone; 14 days
Protocol: as §1
Colony-forming ability (CFA) assay: HL60 cells of logarithmic growth phase were cultured by a method identical to that in Example 8. The cells were divided into control and test groups (each with 3 wells): In the control groups, the HL60 cells were treated only with arsenic trioxide and the final concentration of which were 0 μg/mL and 0.25 μg/mL, respectively; in the test groups, the HL60 cells were treated with different concentrations of As2O3, which was combined with different concentrations of PDCD5, the final concentrations of PDCD5 were 0 μg/mL, 5 μg/mL, 10 μg/mL and 20 μg/mL, respectively. Cultures were incubated in a 37° C., 5% CO2 and saturatedly humidified incubator for 14 days. The numbers of colonies (containing≧30 cells) were counted on day 14 by inverted microscope. The colony-forming ability was observed as the ratio of the number of average colony formation in the test groups versus that in the untreated control group. […]

COc1cccc2c1C(=O)c1c(O)c3c(c(O)c1C2=O)C[C@@](O)(C(=O)CO)C[C@@H]3O[C@H]1C[C@H](N)[C@H](O)[C@H](C)O1 [ADM, adriamycin]
CFA (ratio to untreated control) (Raji cells [1]): 32%

Nc1ccn([C@@H]2O[C@H](CO)[C@@H](O)[C@@H]2O)c(=O)n1 [Ara-C, arabinoside]
apoptosis rate (K562 cells): 34.87%

COc1cccc2c1C(=O)c1c(O)c3c(c(O)c1C2=O)C[C@@](O)(C(C)=O)C[C@@H]3O[C@H]1C[C@H](N)[C@H](O)[C@H](C)O1 [DNR, Daunorubicin]
rate of apoptosis (U937 cells [2]; high-dose DNR 0.1 μg/mL): 23.01%
rate of apoptosis (U937 cells [2]; low-dose DNR 0.05 μg/mL): 21.23%
CFA (ratio to untreated control) (U937 cells [3]): 79%
rate of apoptosis (Raji cells [4]): 17.46%
rate of apoptosis (Jurkat cells): 27.01%
average tumor weight (U937 xenografts; after the treatment, DNR 40 μg, PDCD5 40 μg where combined): 0.45 ± 0.15 g
inhibition of tumor growth (percentage of inhibition on tumor sizes vs control group) (U937 xenografts; day 15, DNR 40 μg, rhPDCD5 40 μg where combined): 31.97%
Average size of tumors (mean ± SD) (U937 xenografts; fifteenth day, rhPDCD5 40 μg into the tumor, DNR 40 μg intraperitoneal, once a day for 8 days): 410.27 ± 154.93* mm^3

Cc1ccc(NC(=O)c2ccc(CN3CCN(C)CC3)cc2)cc1Nc1nccc(-c2cccnc2)n1 [Imatinib]
Sinusoidal expansion, congestive hemorrhage and necrosis of liver cells surrounding sinusoid: mice graded + (mouse livers): 2 number of mice
Sinusoidal expansion, congestive hemorrhage and necrosis of liver cells surrounding sinusoid: mice graded ++ (mouse livers): 0 number of mice
Sinusoidal expansion, congestive hemorrhage and necrosis of liver cells surrounding sinusoid: mice graded +/− (mouse livers): 0 number of mice
Sinusoidal expansion, congestive hemorrhage and necrosis of liver cells surrounding sinusoid: mice graded − (mouse livers): 4 number of mice
Myocardial hemorrhage and congestion: mice graded + (mice hearts): 1 number of mice
Myocardial hemorrhage and congestion: mice graded ++ (mice hearts): 1 number of mice
Myocardial hemorrhage and congestion: mice graded − (mice hearts): 4 number of mice
Myofiber degeneration: mice graded + (mice hearts): 0 number of mice
Myofiber degeneration: mice graded − (mice hearts): 6 number of mice

arsenious acid [As2O3]
enhancement of induced apoptosis (HL-60 cells): can enhance PDCD5-induced apoptosis
rate of apoptosis (HL-60 cells; high-dose As2O3 0.5 μg/mL): 78.02%
rate of apoptosis (HL-60 cells; low-dose As2O3 0.25 μg/mL): 21.23%
CFA (ratio to untreated control) (HL60 cells): 52%
